Reference: the supplement of paper PMC10307832

Tests used:
Experiment in all cases: relative viability (nuclei count vs DMSO), 5 days (fraction); higher = more cells survive
[1] = compound: Cn1cncc1[C@@](N)(c1ccc(Cl)cc1)c1ccc2c(c1)c(-c1cccc(Cl)c1)cc(=O)n2C [Tipifarnib] + CS(=O)(=O)N1CCN(Cc2cc3nc(-c4cccc5[nH]ncc45)nc(N4CCOCC4)c3s2)CC1 [Pictilisib] (partner 1 µM)
In short: (§1)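 Lung cancer cell lines in 1536-well plates got either a single drug or a fixed anchor-drug dose together with five library-drug doses (not always all listed) in √10 steps, by pin tool, on the day after seeding. Nuclei were counted after 5 days, and relative viability is the treated-to-vehicle ratio of nuclei counts. Values are medians of duplicate plates.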

[2] = compound: Cn1cncc1[C@@](N)(c1ccc(Cl)cc1)c1ccc2c(c1)c(-c1cccc(Cl)c1)cc(=O)n2C [Tipifarnib] + CC1(C)CCC(c2ccc(Cl)cc2)=C(CN2CCN(c3ccc(C(=O)NS(=O)(=O)c4ccc(N[C@H](CCN5CCOCC5)CSc5ccccc5)c(S(=O)(=O)C(F)(F)F)c4)cc3)CC2)C1 [Navitoclax] (partner 0.5 µM)
In short: as §1

[3] = compound: Cn1cncc1[C@@](N)(c1ccc(Cl)cc1)c1ccc2c(c1)c(-c1cccc(Cl)c1)cc(=O)n2C [Tipifarnib] + CC(C)C[C@H](NC(=O)[C@H](Cc1ccccc1)NC(=O)c1cnccn1)B(O)O [Bortezomib] (partner 0.002 µM)
In short: as §1

[4] = compound: Cn1cncc1[C@@](N)(c1ccc(Cl)cc1)c1ccc2c(c1)c(-c1cccc(Cl)c1)cc(=O)n2C [Tipifarnib] + C[C@]1(O)C[C@@H](c2nc(-c3ccc4ccc(-c5ccccc5)nc4c3)c3c(N)nccn32)C1 [Linsitinib] (partner 1 µM)
In short: as §1

[5] = compound: Cn1cncc1[C@@](N)(c1ccc(Cl)cc1)c1ccc2c(c1)c(-c1cccc(Cl)c1)cc(=O)n2C [Tipifarnib] + O=C(c1cc(Cc2n[nH]c(=O)c3ccccc23)ccc1F)N1CCN(C(=O)C2CC2)CC1 [Olaparib] (partner 8 µM)
In short: as §1

[6] = compound: Cn1cncc1[C@@](N)(c1ccc(Cl)cc1)c1ccc2c(c1)c(-c1cccc(Cl)c1)cc(=O)n2C [Tipifarnib] + C[C@@H](Oc1cc(-c2cnn(C3CCNCC3)c2)cnc1N)c1c(Cl)ccc(F)c1Cl [Crizotinib] (partner 1 µM)
In short: as §1

[7] = compound: Cn1cncc1[C@@](N)(c1ccc(Cl)cc1)c1ccc2c(c1)c(-c1cccc(Cl)c1)cc(=O)n2C [Tipifarnib] + COc1cc2c(Oc3ccc(NC(=O)C4(C(=O)Nc5ccc(F)cc5)CC4)cc3F)ccnc2cc1OCCCN1CCOCC1 [Foretinib] (partner 0.25 µM)
In short: as §1

[8] = compound: Cn1cncc1[C@@](N)(c1ccc(Cl)cc1)c1ccc2c(c1)c(-c1cccc(Cl)c1)cc(=O)n2C [Tipifarnib] + Cc1nc(NC(=O)N2CCC[C@H]2C(N)=O)sc1-c1ccnc(C(C)(C)C(F)(F)F)c1 [Alpelisib] (partner 2 µM)
In short: as §1

[9] = compound: Cn1cncc1[C@@](N)(c1ccc(Cl)cc1)c1ccc2c(c1)c(-c1cccc(Cl)c1)cc(=O)n2C [Tipifarnib] + CS(=O)(=O)CCNCc1ccc(-c2ccc3ncnc(Nc4ccc(OCc5cccc(F)c5)c(Cl)c4)c3c2)o1 [Lapatinib] (partner 2 µM)
In short: as §1

[10] = compound: Cn1cncc1[C@@](N)(c1ccc(Cl)cc1)c1ccc2c(c1)c(-c1cccc(Cl)c1)cc(=O)n2C [Tipifarnib]
In short: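 For viability, nuclei in each treated well were divided by nuclei in vehicle wells and the median across plates was taken. Lung cancer cell lines in 1536-well plates were pinned with five library-drug doses (not always all listed) spaced by √10, cultured 5 days without medium change, and imaged at 4× after Hoechst staining, with plates passing only at control CV below 25% and at least one doubling.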

[11] = compound: Cn1cncc1[C@@](N)(c1ccc(Cl)cc1)c1ccc2c(c1)c(-c1cccc(Cl)c1)cc(=O)n2C [Tipifarnib] + N=C(N)NC(=N)NCCc1ccccc1 [Phenformin] (partner 250 µM)
In short: as §1

[12] = compound: Cn1cncc1[C@@](N)(c1ccc(Cl)cc1)c1ccc2c(c1)c(-c1cccc(Cl)c1)cc(=O)n2C [Tipifarnib] + Cc1nc(Nc2ncc(C(=O)Nc3c(C)cccc3Cl)s2)cc(N2CCN(CCO)CC2)n1 [Dasatinib] (partner 0.075 µM)
In short: as §1

[13] = compound: Cn1cncc1[C@@](N)(c1ccc(Cl)cc1)c1ccc2c(c1)c(-c1cccc(Cl)c1)cc(=O)n2C [Tipifarnib] + Cc1cc(Nc2cc(N3CCN(C)CC3)nc(Sc3ccc(NC(=O)C4CC4)cc3)n2)n[nH]1 [Tozasertib] (partner 0.1 µM)
In short: as §1

[14] = compound: Cn1cncc1[C@@](N)(c1ccc(Cl)cc1)c1ccc2c(c1)c(-c1cccc(Cl)c1)cc(=O)n2C [Tipifarnib] + COc1cccc2cc(-c3nc([C@H]4CC[C@H](C(=O)O)CC4)n4ncnc(N)c34)[nH]c12 [OSI-027] (partner 0.5 µM)
In short: as §1

[15] = compound: Cn1cncc1[C@@](N)(c1ccc(Cl)cc1)c1ccc2c(c1)c(-c1cccc(Cl)c1)cc(=O)n2C [Tipifarnib] + CCNC(=O)c1noc(-c2cc(C(C)C)c(O)cc2O)c1-c1ccc(CN2CCOCC2)cc1 [Luminespib] (partner 0.01 µM)
In short: as §1

Q: For EBC-1, which relative viability ([1]; first compound 0.01 µM) is on record?
A: 0.313

Q: And the relative viability ([1]; first compound 0.03162 µM)?
A: 0.199

Q: What about the relative viability ([1]; first compound 0.1 µM) of the same cell line?
A: 0.198

Q: And the relative viability ([1]; first compound 0.3162 µM)?
A: 0.183

Q: What about the relative viability ([1]; first compound 1 µM) of the same cell line?
A: 0.242

Q: And the relative viability ([2]; first compound 0.01 µM)?
A: 0.27

Q: What about the relative viability ([2]; first compound 0.03162 µM) of the same cell line?
A: 0.187

Q: And the relative viability ([2]; first compound 0.1 µM)?
A: 0.207

Q: And the relative viability ([2]; first compound 0.3162 µM)?
A: 0.143

Q: And the relative viability ([2]; first compound 1 µM)?
A: 0.186

Q: What about the relative viability ([3]; first compound 0.01 µM) of the same cell line?
A: 0.46

Q: And the relative viability ([3]; first compound 0.03162 µM)?
A: 0.356

Q: What about the relative viability ([3]; first compound 0.1 µM) of the same cell line?
A: 0.359

Q: What about the relative viability ([3]; first compound 0.3162 µM) of the same cell line?
A: 0.295

Q: And the relative viability ([3]; first compound 1 µM)?
A: 0.309

Q: What about the relative viability ([4]; first compound 0.01 µM) of the same cell line?
A: 0.854

Q: What about the relative viability ([4]; first compound 0.03162 µM) of the same cell line?
A: 0.288

Q: And the relative viability ([4]; first compound 0.1 µM)?
A: 0.332

Q: What about the relative viability ([4]; first compound 0.3162 µM) of the same cell line?
A: 0.265

Q: And the relative viability ([4]; first compound 1 µM)?
A: 0.212

Q: And the relative viability ([5]; first compound 0.01 µM)?
A: 0.648

Q: And the relative viability ([5]; first compound 0.03162 µM)?
A: 0.411

Q: What about the relative viability ([5]; first compound 0.1 µM) of the same cell line?
A: 0.332

Q: What about the relative viability ([5]; first compound 0.3162 µM) of the same cell line?
A: 0.228

Q: And the relative viability ([5]; first compound 1 µM)?
A: 0.229

Q: And the relative viability ([6]; first compound 0.01 µM)?
A: 0.195

Q: And the relative viability ([6]; first compound 0.03162 µM)?
A: 0.198

Q: What about the relative viability ([6]; first compound 0.1 µM) of the same cell line?
A: 0.215

Q: And the relative viability ([6]; first compound 0.3162 µM)?
A: 0.206

Q: What about the relative viability ([6]; first compound 1 µM) of the same cell line?
A: 0.172

Q: What about the relative viability ([7]; first compound 0.01 µM) of the same cell line?
A: 0.103

Q: And the relative viability ([7]; first compound 0.03162 µM)?
A: 0.0929

Q: What about the relative viability ([7]; first compound 0.1 µM) of the same cell line?
A: 0.0996

Q: What about the relative viability ([7]; first compound 0.3162 µM) of the same cell line?
A: 0.113

Q: And the relative viability ([7]; first compound 1 µM)?
A: 0.0971

Q: And the relative viability ([8]; first compound 0.01 µM)?
A: 0.697

Q: What about the relative viability ([8]; first compound 0.03162 µM) of the same cell line?
A: 0.371

Q: What about the relative viability ([8]; first compound 0.1 µM) of the same cell line?
A: 0.36

Q: What about the relative viability ([8]; first compound 0.3162 µM) of the same cell line?
A: 0.331

Q: What about the relative viability ([8]; first compound 1 µM) of the same cell line?
A: 0.274

Q: And the relative viability ([9]; first compound 0.01 µM)?
A: 0.199

Q: And the relative viability ([9]; first compound 0.03162 µM)?
A: 0.214

Q: What about the relative viability ([9]; first compound 0.1 µM) of the same cell line?
A: 0.2

Q: And the relative viability ([9]; first compound 0.3162 µM)?
A: 0.188

Q: And the relative viability ([9]; first compound 1 µM)?
A: 0.215

Q: What about the relative viability ([10]; 0.01 µM) of the same cell line?
A: 0.837

Q: And the relative viability ([10]; 0.03162 µM)?
A: 0.383

Q: What about the relative viability ([10]; 0.1 µM) of the same cell line?
A: 0.353

Q: What about the relative viability ([10]; 0.3162 µM) of the same cell line?
A: 0.257

Q: And the relative viability ([10]; 1 µM)?
A: 0.259

Q: For NCI-H1623, which relative viability ([11]; first compound 0.01 µM) is on record?
A: 0.603

Q: What about the relative viability ([11]; first compound 0.03162 µM) of the same cell line?
A: 0.556

Q: What about the relative viability ([11]; first compound 0.1 µM) of the same cell line?
A: 0.553

Q: And the relative viability ([11]; first compound 0.3162 µM)?
A: 0.565

Q: What about the relative viability ([11]; first compound 1 µM) of the same cell line?
A: 0.374

Q: And the relative viability ([12]; first compound 0.01 µM)?
A: 0.547

Q: And the relative viability ([12]; first compound 0.03162 µM)?
A: 0.493

Q: And the relative viability ([12]; first compound 0.1 µM)?
A: 0.551

Q: What about the relative viability ([12]; first compound 0.3162 µM) of the same cell line?
A: 0.583

Q: And the relative viability ([12]; first compound 1 µM)?
A: 0.293

Q: And the relative viability ([13]; first compound 0.01 µM)?
A: 0.427

Q: What about the relative viability ([13]; first compound 0.03162 µM) of the same cell line?
A: 0.39

Q: And the relative viability ([13]; first compound 0.1 µM)?
A: 0.441

Q: And the relative viability ([13]; first compound 0.3162 µM)?
A: 0.413

Q: And the relative viability ([13]; first compound 1 µM)?
A: 0.368

Q: And the relative viability ([7]; first compound 0.01 µM)?
A: 0.904

Q: What about the relative viability ([7]; first compound 0.03162 µM) of the same cell line?
A: 0.954

Q: What about the relative viability ([7]; first compound 0.1 µM) of the same cell line?
A: 0.911

Q: And the relative viability ([7]; first compound 0.3162 µM)?
A: 0.765

Q: What about the relative viability ([7]; first compound 1 µM) of the same cell line?
A: 0.587

Q: And the relative viability ([14]; first compound 0.01 µM)?
A: 0.4

Q: And the relative viability ([14]; first compound 0.03162 µM)?
A: 0.426

Q: And the relative viability ([14]; first compound 0.1 µM)?
A: 0.418

Q: What about the relative viability ([14]; first compound 0.3162 µM) of the same cell line?
A: 0.361

Q: What about the relative viability ([14]; first compound 1 µM) of the same cell line?
A: 0.319

Q: And the relative viability ([15]; first compound 0.01 µM)?
A: 0.647

Q: What about the relative viability ([15]; first compound 0.03162 µM) of the same cell line?
A: 0.37

Q: What about the relative viability ([15]; first compound 0.1 µM) of the same cell line?
A: 0.411

Q: And the relative viability ([15]; first compound 0.3162 µM)?
A: 0.412

Q: And the relative viability ([15]; first compound 1 µM)?
A: 0.325

Q: What about the relative viability ([10]; 0.01 µM) of the same cell line?
A: 1.07

Q: And the relative viability ([10]; 0.03162 µM)?
A: 1.12

Q: And the relative viability ([10]; 0.1 µM)?
A: 0.946

Q: And the relative viability ([10]; 0.3162 µM)?
A: 0.886

Q: And the relative viability ([10]; 1 µM)?
A: 0.818
